Data published in ChEMBL document CHEMBL3112543, “Discovery of MK-7655, a β-lactamase inhibitor for combination with Primaxin®” (Bioorg Med Chem Lett, 2014).
pIC50: −log10 of the molar value.

Key:
Beta-lactamase = Beta-lactamase (Acinetobacter baumannii, UniProt Q8RLA6); assay: Inhibition of beta-lactamase Oxa40 in Acinetobacter baumannii assessed as inhibition of hydrolysis of nitrocefin
[1] = Inhibition of beta-lactamase AmpC in Acinetobacter baumannii assessed as inhibition of hydrolysis of nitrocefin
Pseudomonas aeruginosa = assay: Inhibition of beta-lactamase in Pseudomonas aeruginosa CL 5701 assessed as drug concentration required to reduce imipenem MIC to 4 ug/ml
[2] = Inhibition of beta-lactamase KPC-2 in Klebsiella pneumoniae assessed as inhibition of hydrolysis of nitrocefin
Klebsiella pneumoniae = assay: Inhibition of beta-lactamase in Klebsiella pneumoniae CL 6569 assessed as drug concentration required to reduce imipenem MIC to 4 ug/ml
Acinetobacter baumannii = assay: Inhibition of beta-lactamase in Acinetobacter baumannii CL 6188 assessed as drug concentration required to reduce imipenem MIC to 4 ug/ml
[3] = Inhibition of beta-lactamase AmpC in Pseudomonas aeruginosa assessed as inhibition of hydrolysis of nitrocefin

Chain of Beta-lactamase (Q8RLA6 whole entry): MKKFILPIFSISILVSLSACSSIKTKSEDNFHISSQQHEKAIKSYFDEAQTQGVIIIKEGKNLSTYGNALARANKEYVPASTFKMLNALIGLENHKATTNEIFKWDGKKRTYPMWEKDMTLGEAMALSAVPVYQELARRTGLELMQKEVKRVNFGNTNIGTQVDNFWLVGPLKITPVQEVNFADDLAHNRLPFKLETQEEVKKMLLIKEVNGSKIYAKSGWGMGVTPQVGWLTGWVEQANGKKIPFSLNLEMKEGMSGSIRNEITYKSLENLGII

Row | SMILES | pIC50 (Beta-lactamase) | pIC50 [1] | INH (Pseudomonas aeruginosa) [µM] | pIC50 [2] | INH (Klebsiella pneumoniae) [µM] | INH (Acinetobacter baumannii) [µM] | pIC50 [3]
1 | O=C(N[C@@H]1CCNC1)[C@@H]1CC[C@@H]2CN1C(=O)N2OS(=O)(=O)O | < 4.30 | 4.57 | 6.25 | 6.59 | 6.25 | > 100 | 5.72
2 | O=C(N[C@H]1CCNC1)[C@@H]1CC[C@@H]2CN1C(=O)N2OS(=O)(=O)O | < 4.30 | 5.25 | 3.12 | 6.39 | 6.25 | > 100 | 6.85
3 | O=C(N[C@@H]1CCCNCC1)[C@@H]1CC[C@@H]2CN1C(=O)N2OS(=O)(=O)O | < 4.30 | 5.92 | 6.25 | 6.65 | 12.5 | > 100 | 6.28
4 | CN1CCC(NC(=O)[C@@H]2CC[C@@H]3CN2C(=O)N3OS(=O)(=O)O)CC1 | < 4.30 | 5.57 | 12.5 | 6.62 | 12.5 | > 100 | 6.30
5 | O=C(NC1CCS(=O)(=O)CC1)[C@@H]1CC[C@@H]2CN1C(=O)N2OS(=O)(=O)O | < 4.30 | 6.33 | 50 | 6.82 | 50 | > 100 | 8.02
6 | O=C(N[C@H]1CCCNCC1)[C@@H]1CC[C@@H]2CN1C(=O)N2OS(=O)(=O)O | < 4.30 | 5.77 | 6.25 | 6.61 | 12.5 | > 100 | 7.16
7 | O=C(NCC1CCNCC1)[C@@H]1CC[C@@H]2CN1C(=O)N2OS(=O)(=O)O | < 4.30 | 5.66 | 6.25 | 7.11 | 6.25 | > 100 | 7.52
8 | CN(C(=O)[C@@H]1CC[C@@H]2CN1C(=O)N2OS(=O)(=O)O)C1CCNCC1 | < 4.30 | 5.68 | 25 | 5.60 | 50 | > 100 | 6.54
9 | O=C(NC1CCNCC1)[C@@H]1CC[C@@H]2CN1C(=O)N2OS(=O)(=O)O [RELEBACTAM] | < 4.30 | 5.39 | 4.7 | – | 12.5 | > 100 | 6.33

Continued, values first:

Row | pIC50 (Beta-lactamase) | pIC50 [1] | INH (Pseudomonas aeruginosa) [µM] | pIC50 [2] | INH (Klebsiella pneumoniae) [µM] | INH (Acinetobacter baumannii) [µM] | pIC50 [3] | SMILES
10 | < 4.30 | 4.92 | 25 | 6.59 | 25 | > 100 | 6.68 | C[n+]1ccc(NC(=O)[C@@H]2CC[C@@H]3CN2C(=O)N3OS(=O)(=O)[O-])cc1
11 | 4.89 | 5.96 | 6.25 | 8.05 | 6.25 | > 100 | 6.77 | O=C(OC1CCNCC1)[C@@H]1CC[C@@H]2CN1C(=O)N2OS(=O)(=O)O
12 | 6.28 | 7.64 | 12.5 | 7.44 | 100 | > 100 | 8.92 | O=C(Nc1ccccn1)[C@@H]1CC[C@@H]2CN1C(=O)N2OS(=O)(=O)O
13 | 5.32 | 6.34 | 50 | 8.00 | > 100 | > 100 | 7.96 | O=C(O)c1ccc(NC(=O)[C@@H]2CC[C@@H]3CN2C(=O)N3OS(=O)(=O)O)cc1
14 | 5.36 | 7.59 | 6.25 | 7.38 | 12.5 | > 100 | 8.52 | NCc1ccc(NC(=O)[C@@H]2CC[C@@H]3CN2C(=O)N3OS(=O)(=O)O)nc1
15 | 4.70 | 5.98 | 25 | – | 50 | > 100 | 8.22 | O=C(Nc1ccncc1)[C@@H]1CC[C@@H]2CN1C(=O)N2OS(=O)(=O)O
16 | 6.44 | 7.00 | 50 | 7.96 | 25 | > 100 | 8.10 | Nc1cccc(NC(=O)[C@@H]2CC[C@@H]3CN2C(=O)N3OS(=O)(=O)O)n1
17 | 4.55 | 5.96 | 25 | 8.52 | 50 | > 100 | 7.96 | N[C@@H](Cc1ccc(NC(=O)[C@@H]2CC[C@@H]3CN2C(=O)N3OS(=O)(=O)O)cc1)C(=O)O
18 | 4.70 | 5.92 | 100 | 7.38 | 50 | > 100 | 7.43 | O=C(Nc1cccnc1)[C@@H]1CC[C@@H]2CN1C(=O)N2OS(=O)(=O)O
